Test results as given in ChEMBL document CHEMBL1158338, “Synthesis of (+/-)Abyssinone I and related compounds: Their anti-oxidant and cytotoxic activities” (Eur J Med Chem, 2009).
Activity calls are given as the source filed them.

Key:
[1] = Antioxidant activity assessed as ferric ion reducing activity at 200 ug after 20 mins by UV-visible spectrophotometry; type: functional
[2] = tested on: Radical scavenging activity; test: Antioxidant activity assessed as DPPH radical scavenging activity at 200 ug after 30 mins by UV-visible spectrophotometry; type: functional
MCF7 = test: Cytotoxicity against human MCF7 cells at 25 to 150 uM after 72 hrs by MTT assay; type: functional, cell-based

Measured: Activity

COc1ccc(/C=C/C(=O)c2ccc(O)cc2O)cc1CC=C(C)C
active: all assays above

CC1(C)CCc2cc(/C=C/C(=O)c3ccc(O)cc3O)ccc2O1
active: all assays above

O=C(/C=C/c1ccc(O)cc1)c1ccc(O)cc1O
active: all assays above

COc1ccc(/C=C/C(=O)c2ccc(O)cc2O)cc1
active: all assays above

CC1(C)C=Cc2cc(/C=C/C(=O)c3ccc(O)cc3O)ccc2O1
active: all assays above

O=C1C[C@@H](c2ccc(O)cc2)Oc2cc(O)ccc21
active: all assays above

CC1(C)C=Cc2cc(C3CC(=O)c4ccc(O)cc4O3)ccc2O1 (centres undefined)
active: all assays above

CC(C)=CCc1cc(/C=C/C(=O)c2ccc(O)cc2O)ccc1O
active: all assays above

CC(C)=CCOc1ccc(/C=C/C(=O)c2ccc(O)cc2O)cc1
active: all assays above

CC(C)=CCc1cc(C2CC(=O)c3ccc(O)cc3O2)ccc1O (centres undefined)
active: all assays above

COc1ccc(C2CC(=O)c3ccc(O)cc3O2)cc1 (centres undefined)
active: all assays above

CC1(C)CCc2cc(C3CC(=O)c4ccc(O)cc4O3)ccc2O1 (centres undefined)
active: all assays above

COc1ccc(C2CC(=O)c3ccc(O)cc3O2)cc1CC=C(C)C (centres undefined)
active: all assays above
